What all share (assay type): cell-based
Test [1] deals with human breast MDA-MB-231 tumor cell line. In words: Tumor cell growth assay (Cell Titer Glo). As to conditions: MDA-MB-231, 72 hours, read-out: IC50 μM against MDA-MB-231. (In ATP-based viability assays light output follows the ATP content of the culture.)
A further test concerns MALME-3M. The test is described as follows: Tumor cell growth inhibition panel. As to conditions: Homo sapiens, Melanoma. How it is done:
(§1) Thus, compound 12 is able to show broad spectrum tumor cell growth inhibitory activity independent of cyclooxygenase inhibition, whereas PDE5 may be the major contributor to such activity.
(§2) The human tumor cell lines were purchased from the American Type Culture Collection (Mansassas, Va.) and maintained in RPMI-1640+2.0 g/L glucose pH 7.4+5% FBS+4 mM glutamine (complete growth medium), incubated at 37° C. in 5% CO2, and passaged at subconfluent density. The human fetal colon FHC cells were cultured in DMEM:F12 medium supplemented with 10% FBS, cholera toxin (10 ng/mL), 5 μg/ml transferrin, 5 μg/ml insulin, and 100 ng/ml hydrocortisone. The passage number was routinely limited to approximately 20 and morphology monitored with each passage, but no additional authentication of the cell lines was performed.
(§3) Cells were plated in 96-well microtiter plates at a density of 5,000 cells per well and allowed to adhere overnight prior to treatment. Cells were treated with a 2-log concentration range of either SS or SBA and incubated for an additional 72 hours. For siRNA assays, cells were transfected in OptiMEM media with 0.5% SureFECT transfection reagent and 200 nmol/L of either negative control or PDE5 siRNA and incubated at 37° C. for 24 h prior to treatment. At the end of the incubation period, relative cell viability was compared to vehicle controls using the Cell Titer Glo Assay (Promega, Madison Wis.), which measures viable cells based on ATP content, according to the manufacturer's specifications.

In a further test the test system is MDA-MB-231. The test is described as follows: Tumor cell growth inhibition panel. As to conditions: Homo sapiens, Breast. The procedure: as §1, §2, §3
The next test has as its system RXF-393. The test is described as follows: Tumor cell growth inhibition panel. As to conditions: Homo sapiens, Renal. How it is done:
as §1, §2, §3

For a further test, the system named is SK-MEL-2. The test is described as follows: Tumor cell growth inhibition panel. As to conditions: Homo sapiens, Melanoma. How it is done:
as §1, §2, §3

Broadly, the IC50 is the concentration that gives 50% inhibition.

The structures appear in SMILES notation.

For the compound `CC(C)(C)C1=NN(c2ccc(C(=O)O)cc2)C(c2ccc(Cl)cc2Cl)C1` (centres unmarked) [Compound 12, 4-(3-(tert-Butyl)-5-(2,4-dichlorophenyl)-4,5-dihydro-1H-pyrazol-1-yl)benzoic acid], the IC50 in test [1] is above 50 µM; with MALME-3M, 65.7 µM; in the test on MDA-MB-231 it was 64.4 µM; with RXF-393, 46.7 µM; in the test on SK-MEL-2, 44.5 µM.

The values above are taken from patent US9388139B2, “Derivatives of celeboxib, use thereof and preparation thereof” (German University, priority 2011, dated 2016).
